These results are taken from patent US20220160849A1, “CANCER VACCINE FORMULATION” (MIE UNIVERSITY, priority 2019, published 2022).

This assay has as its system mouse melanoma B16F10 cell line expressing TRP2, TRP1, and gp100. The assay is described as follows: Mouse tumor growth test, mouse melanoma B16F10. In kind it is in vivo, C57BL/6 mouse. The protocol:
A mouse fibrosarcoma CMS5a cell line expressing mERK2, a mouse colorectal cancer cell CT26 cell line expressing AH1 and gp70, or a mouse melanoma B16F10 cell line expressing TRP2, TRP1, and gp100 was subcutaneously transplanted. The CMS5a cell line and the CT26 cell line were each subcutaneously transplanted in an amount of 1×10^6 cultured cells/100 μL/individual to each BALB/c mouse (female: body weight: 15 to 25 g). The B16F10 cell line was subcutaneously transplanted in an amount of […] cultured cells/100 μL/individual to each C57BL/6 mouse (female; body weight: 15 to 25 g). Then, tumor volumes were measured over time.
Each sample of Table 17 was subcutaneously administered with the frequency described in Table 17 to the mouse melanoma B16F10-bearing mice prepared by the method described in Example 5 to conduct a mouse tumor growth test.
Each sample of Table 20 was subcutaneously administered with the frequency described in Table 20 to the mouse melanoma B16F10-bearing mice prepared by the method described in Example 5 to conduct a mouse tumor growth test.
Each sample of Table 21 was subcutaneously administered with the frequency described in Table 21 to the mouse melanoma B16F10-bearing mice prepared by the method described in Example 5 to conduct a mouse tumor growth test.
Each sample of Table 22 was subcutaneously administered with the frequency described in Table 22 to the mouse melanoma B16F10-bearing mice prepared by the method described in Example 5 to conduct a mouse tumor growth test.
Each sample of Table 23 was subcutaneously administered with the frequency described in Table 23 to the mouse melanoma B16F10-bearing mice prepared by the method described in Example 5 to conduct a mouse tumor growth test.

[1] abbreviates: Example 7-4, FIG. 23, adjuvant (Sting 0.015 mg, R848 0.05 mg) with 99k HA-C6-Chol-42% / TRP2TRP1gp100-6Y 0.05 mg s.c. day 10, 14, 17, 20.

On to `Nc1nc2c(ncn2C2OC3COP(=O)(S)OC4C(COP(=O)(S)OC2C3O)OC(n2cnc3c(N)ncnc32)C4O)c(=O)[nH]1` (stereo not drawn) [Sting, 2′3′-cGAM(PS)2(Rp/Sp)], for which, under setting [1], the “tumor growth suppressive effect (tumor volume)” value (“tumor growth suppressive effect” below) is on record as “high tumor growth suppressive effect”. Turning to polyIC, the “tumor growth suppressive effect” value (Example 7-3, FIG. 22, adjuvant 0.05 mg with 99k HA-C6-Chol-42% / TRP2TRP1gp100-6Y 0.05 mg s.c. day 10, 14, 17, 21) was “high tumor growth suppressive effect”. For `CCOCc1nc2c(N)nc3ccccc3c2n1CC(C)(C)O` [R848], the “tumor growth suppressive effect” value under setting [1] is given as “high tumor growth suppressive effect”.
